# In paper PMC9317316, “Synthesis and Evaluation of Some New 4H-Pyran Derivatives as Antioxidant, Antibacterial and Anti-HCT-116 Cells of CRC, with Molecular Docking, Antiproliferative, Apoptotic and ADME Investigations” (Pharmaceuticals, 2022):
# Values joined by “and” are separate entries in the source; they are usually repeats but may differ in a detail not shown here. Equal entries are not always repeated. Where two headings read alike, the source gives them in different places.
# Key:
# [1] = DPPH radical scavenging assay; details: for IC50: 0.03 to 1 mg/mL, 1 h, mean ± SD, triplicate, read-out: IC50 (mM) for DPPH Scavenging Potency
# Method: The IC50 values for DPPH were calculated from the plot of the scavenging effect against the compound concentration.
# The compounds’ capacities to scavenge the stable radical 1,1 diphenyl-2-picrylhydrazyl (DPPH) formed in solution by donation of a hydrogen atom or an electron was investigated according to the method described by Bersuder and coworkers. Due to the fact that the initial blue/purple solution of diphenyl picrylhydrazine changes to yellow in the presence of compounds with a capacity to scavenge DPPH free radicals, this reaction is used as a measure of a compound’s ability to scavenge any free radical. Briefly, a 0.5 mL volume of DPPH ethanolic solution was mixed with an equal volume of each sample concentration (0.03 to 1 mg/mL), shaken strongly and incubated at room temperature for 1 h in darkness. The absorbance of the residual DPPH radicals was measured at 519 nm and compared to that of the control (without the tested compound). DPPH radical scavenging was calculated using the following formula: Scavenging effect (%) = (1 − Acompound/AControl) × 100, where Acompound and Acontrol are the absorbances of the tested compound and of the control, respectively. A plot of the scavenging effect (%) versus the sample concentration was also performed to determine the compound concentration providing 50% inhibition (IC50).
# E. faecalis (ATCC 29122) [2] = test: Antibacterial agar diffusion method (inhibition zone); assay type: cell-based
# Method: (§1) The results for the in vitro antibacterial properties of the synthesized compounds against five Gram-positive and four Gram-negative human-pathogenic strains, which were assessed by both the agar diffusion method (based on inhibition zone (IZ)) and the broth dilution bioassay (for the determination of the half-maximal inhibitory concentration (IC50) values), using ampicillin as the reference antibiotic drug, are shown in Table 2 and Table 3.
# (§2) The antibacterial activity of all synthesized compounds was evaluated against the Gram-negative strains E. coli (ATCC 25966), K. pneumonia (ATCC 700603), P. aeruginosa (ATCC 27853) and S. enteric (ATCC 43972) and against the Gram-positive strains B. cereus (ATCC 14579), B. subtilis (ATCC 6633), E. faecalis (ATCC 29122), S. aureus (ATCC 25923) and S. epidermidis (ATCC 14990), using the agar diffusion method through measuring the appearance of the inhibition zone on the surface of the top agar, as reported by Berghe and Vlietinck. Ampicillin (10 µg/well) was used as the positive reference standard. Bacterial viability was also investigated by determining the colony-forming ability (CFU) of bacteria incubated at different time intervals without or with appropriate amounts of the compound, which were mixed with 2 ×10^7 CFU/mL in sterile BHI and incubated under shaking for 60 min at 37 °C. Samples were serially diluted into sterile BHI, streaked onto media agar plates and incubated for 24 h at 37 °C. The antibacterial potency of the tested compounds was expressed as the residual number of CFUs with reference to the initial inoculums. The results presented as the half-maximal (50 %) inhibitory concentration (IC50) values are the means of three different measurements.
# S. aureus (ATCC 25923) [3] = test: as above; assay type: cell-based
# Method: as §1, §2
# E. coli (ATCC 25966) [4] = test: as above; assay type: cell-based; details: E. coil (ATCC 25966)
# Method: as §1, §2
# S. enteric (ATCC 43972) [5] = test: as above; assay type: cell-based
# Method: as §1, §2
# B. subtilis (ATCC 6633) [6] = test: as above; assay type: cell-based
# Method: as §1, §2
# B. cereus (ATCC 14579) [7] = test: as above; assay type: cell-based
# Method: as §1, §2
# [8] = system: K. pneumonia (ATCC 700603); test: as above; assay type: cell-based
# Method: as §1, §2
# [9] = system: P. aeruginosa (ATCC 27853); test: as above; assay type: cell-based
# Method: as §1, §2
# [10] = system: S. epidermidis (ATCC 14990); test: as above; assay type: cell-based
# Method: as §1, §2
# [11] = Reducing power assay (FRAC, Fe3+ to Fe2+); details: 0-1 mg/mL, absorbance 700 nm
# Method: Secondly, FRAC was determined over the concentration range of 0.0−1 mg/mL via monitoring Fe^3+−Fe^2+ transformation in the presence of the studied compounds and the reference antioxidant BHT to estimate the values of efficient concentration (EC50), expressed in mM.
# The reducing power of the studied compounds was assessed according to Oyaizu’s method. Briefly, different concentrations (ranging from 0 to 1 mg/mL) of each tested compound were first mixed with 1 mL of 0.2 M sodium phosphate buffer (pH 6.6) and 1 mL of 1% potassium ferricyanide (K3Fe(CN)6) and incubated at 50 °C for 20 min. After the addition of 1.25 mL of 20% trichloroacetic acid (TCA), the mixture was centrifuged for 10 min at 3000 rpm and the upper layer solution was then mixed with 0.5 mL of 0.1% fresh ferric chloride and an equal volume of deionized water. Finally, the absorption of the resulting mixture was measured at 700 nm using a UV spectrophotometer against distilled water as the blank, while butylated hydroxytoluene (BHT) was used as a positive control. The sample ferric reducing power capability was indicated by increased absorbance.
# E. faecalis (ATCC 29122) [12] = test: Antibacterial viability (CFU) assay, IC50; assay type: cell-based; details: Enterococcus faecalis, ATCC29122
# Method: as §1, §2
# S. aureus (ATCC 25923) [13] = test: Antibacterial viability (CFU) assay, IC50; assay type: cell-based; details: Staphylococcus aureus, ATCC25923
# Method: as §1, §2
# E. coli (ATCC 25966) [14] = test: Antibacterial viability (CFU) assay, IC50; assay type: cell-based; details: Escherichia coli, ATCC25966; E. coil (ATCC 25966)
# Method: as §1, §2
# S. enteric (ATCC 43972) [15] = test: Antibacterial viability (CFU) assay, IC50; assay type: cell-based; details: read-out: IC50
# Method: as §1, §2
# B. subtilis (ATCC 6633) [16] = test: Antibacterial viability (CFU) assay, IC50; assay type: cell-based
# Method: as §1, §2
# B. cereus (ATCC 14579) [17] = test: Antibacterial viability (CFU) assay, IC50; assay type: cell-based; details: Bacillus cereus, ATCC14579
# Method: as §1, §2
# [18] = system: K. pneumonia (ATCC 700603); test: Antibacterial viability (CFU) assay, IC50; assay type: cell-based; details: Klebsiella pneumoniae, ATCC700603
# Method: as §1, §2
# [19] = system: P. aeruginosa (ATCC 27853); test: Antibacterial viability (CFU) assay, IC50; assay type: cell-based; details: Pseudomonas aeruginosa, ATCC27853
# Method: as §1, §2
# [20] = system: S. epidermidis (ATCC 14990); test: Antibacterial viability (CFU) assay, IC50; assay type: cell-based; details: Staphylococcus epidermidis, ATCC14990
# Method: as §1, §2
# HCT-116 cells = test: Cell viability (cytotoxicity, LDH release) assay; assay type: cell-based; details: Homo sapiens, 24 h; for viability at 100 µg/mL: read-out: percent of viable cells
# Method: The synthesized compounds were also examined at four concentrations (10, 25, 50 and 100 µg/mL) for their cytotoxic effects on human colorectal cancer HCT-116 cells after their incubation together for 24 h.
# Cytotoxic potency was examined for a human colon cancer cell line HCT-116 (American Type Culture Collection; Manassas, VA, USA) using various amounts of each compound (10, 25, 50 and 100 µg). Samples were diluted in Dulbecco’s Modified Eagle’s Medium, consisting of 10% Fetal Bovine Serum, and added to cells grown and cultured for 24 h in a 5% CO2-humidified incubator at 37 °C. Then, the activity of lactate dehydrogenase released from damaged cells was determined in the collected supernatant aliquots using an ELISA endpoint assay (Benchmark Plus, Bio-Rad, Hercules, CA, USA). As positive and negative controls, respectively, 0.1% Triton X-100 in the assay medium and the assay medium only were used. Cell viability, shown as mean values ± SDs (n = 3), was expressed as a relative percentage of the OD values determined at 600 nm in compound-treated cells and the control.
# [21] = Bacillus subtilis, ATCC6633, B. subtilis (ATCC 6633)
# [22] = read-out: Mean IC50 (µM) of cytotoxicity
# [23] = read-out: Mean IC50 (µg/mL) of cytotoxicity
SMILES,IC50 [1] [mM],DPPH Radical Scavenging Effenciency (%) at 1 mg/mL [1] [%],melting point [°C],IZ (mm) (E. faecalis (ATCC 29122) [2]),IZ (mm) (S. aureus (ATCC 25923) [3]),IZ (mm) (E. coli (ATCC 25966) [4]),IZ (mm) (S. enteric (ATCC 43972) [5]),IZ (mm) (B. subtilis (ATCC 6633) [6]),IZ (mm) (B. cereus (ATCC 14579) [7]),IZ (mm) [8] [mm],IZ (mm) [9] [mm],IZ (mm) [10],EC50 [11] [µM],IC50 (E. faecalis (ATCC 29122) [12]) [µM],IC50 (S. aureus (ATCC 25923) [13]) [µM],IC50 (E. coli (ATCC 25966) [14]) [µM],IC50 (S. enteric (ATCC 43972) [15]) [µM],IC50 (B. subtilis (ATCC 6633) [16]; [21]) [µM],IC50 (B. cereus (ATCC 14579) [17]) [µM],IC50 [18] [µM],other results
"CCOC(=O)C1=C(C)OC(N)=C(C#N)C1c1cccc(-c2ccccc2)c1 (stereo not shown) [4e, 6-Amino-4-biphenyl-3-yl-5-cyano-2-methyl-4H-pyran-3-carboxylic acid ethyl ester]",1.65 ± 0.097,39.25 ± 1.06,186 to 190,15.50 ± 0.71,16.50 ± 2.10 mm,2.7 ± 0.35,3.5 ± 0.7,20.50 ± 0.71,23.00 ± 1.41,2.5 ± 0.7,4.5 ± 0.7,20.50 mm and 20.50 ± 2.12 mm,305 ± 39,37.3 ± 2.16,34.8 ± 2.16,103 ± 3.05,96.1 ± 2.5,37.7 ± 1.58,33.6 ± 1.58,90.7 ± 2.78,IC50 [19]: 88 ± 2.78 µM; IC50 [20]: 30.8 ± 1.58 µM; viability at 100 µg/mL (HCT-116 cells): 11 to 32.5%; IC50 (HCT-116 cells; [22]): 138 ± 9.78 µM; IC50 (HCT-116 cells; [23]): 49.7 ± 3.53 µg/mL
"COC(=O)C1=C(C)OC(N)=C(C#N)C1c1cccc(O)c1Cl (stereo not shown) [4f, 6-Amino-4-(2-chloro-3-hydroxy-phenyl)-5-cyano-2-methyl-4H-pyran-3-carboxylic acid methyl ester]",3.34 ± 0.131,43.75 ± 1.77,238 to 240,19.00 ± 1.41,16.50 ± 0.71 mm,7.5 ± 0.71,6.5 ± 0.7,19.50 ± 0.71,22.50 ± 0.71,4.5 ± 0.7,6.0 ± 1.4,14.50 ± 0.71 mm,398 ± 45,34.6 ± 0.59,38.4 ± 1.31,95.7 ± 5.61,94.2 ± 3.43,23.6 to 36.8,42.4 ± 2.65,82 ± 3.43,IC50 (B. subtilis (ATCC 6633) [16]; B. subtilis (ATCC 6633)): 36.8 ± 0.87 µM; IC50 [19]: 105 ± 2.81 µM; IC50 [20]: 33 ± 2.65 µM; viability at 100 µg/mL (HCT-116 cells): 55.5%; IC50 (HCT-116 cells; [22]): 333 ± 13.4 µM; IC50 (HCT-116 cells; [23]): 107 ± 4.29 µg/mL
"CCOC(=O)C1=C(C)OC(N)=C(C#N)C1c1c(OC)cc(OC)cc1OC (stereo not shown) [4h, 6-Amino-5-cyano-2-methyl-4-(2,4,6-trimethoxy-phenyl)-4H-pyran-3-carboxylic acid ethyl ester]",1.31 ± 0.075,33.50 ± 2.12,196 to 198,8.00 ± 1.41,17.50 mm and 17.50 ± 0.71 mm,1.5 ± 0.71,5.5 ± 0.7,6.00 ± 1.41,4.50 ± 0.71,3.5 ± 0.7,4.5 ± 0.7,16.50 ± 0.71 mm,221 ± 11,45.9 ± 0.75,32.7 ± 0.93,114 ± 0.8,112 ± 2.94,50.1 ± 2.83,46.5 ± 1.52,118 ± 2.67,IC50 [19]: 89.5 ± 2.94 µM; IC50 [20]: 35.8 ± 1.52 µM; viability at 100 µg/mL (HCT-116 cells): 11 to 32.5%; IC50 (HCT-116 cells; [22]): 185 ± 11.5 µM; IC50 (HCT-116 cells; [23]): 69.2 ± 4.29 µg/mL
